Several values for one entry are separate records, joined by “and”; a condition that tells them apart may be missing. Identical values can stand only once. Entries after “also recorded” stand apart in the source; their conditions may differ. Like-named read-outs stand apart in the source and are kept apart here. Where no end group is shown, it is not given here.
What was measured:
[1] = tested on: Hansen YC-380 lactic ferment; test: Fermentation of dairy mix containing DMV C12 hydrolysate (FIG. 3); design: species or system lactic bacteria; conditions: 1.5 g/l of DMV C12 hydrolysate, fermentation up to pH 4.7
Text: FIG. 3: Compared peptide profiles (LC-MS/MS chromatograms) of a dairy “mix” containing 1.5 g/l of DMV C12® hydrolysate, before (1) and after (2) fermentation up to pH 4.7 by the Hansen YC-380 lactic ferment. Virtually all of the hydrolysate peptides, including the bioactive C12 peptide (αS1 [23-34] fragment), disappeared following metabolism by the ferment strains.
In addition, in order to verify that this phenomenon was not specific to Lactium®, several combinations of ferments and other ingredients containing bioactive peptides were studied by implementing the same test (reconstituted milk and an ingredient to be tested in an amount of 1.5 g/l, fermented under standard conditions, fermentation stopped at pH 4.7, two repetitions).

[2] = In vivo animal; Migliore-Samour 1988; cited from earlier work
platelet aggregation = conditions: In vitro; Jollès 1986; Raha 1988; cited from earlier work
[3] = tested on: experimental arterial thrombosis; conditions: Rat and guinea pig with experimental arterial thrombosis; after IV injection; Drouet 1990; cited from earlier work
[4] = tested on: mouse peritoneal macrophages; conditions: In vitro; Parker 1996; cited from earlier work
arterial pressure [5] = conditions: Normal rats; Nakamura 1995; cited from earlier work
arterial pressure [6] = conditions: Hypertensive rats; after ingestion; Nakamura 1995; cited from earlier work
arterial pressure [7] = conditions: Hypertensive humans (36 subjects); 8 weeks of ingestion of 95 ml/d; Hata 1996; cited from earlier work
Staphylococcus aureus = conditions: Mouse, sheep; IM injection; Lahov 1996; cited from earlier work
[8] = tested on: ferment consisting of a mixture of the strains I-2783, I-2774, I-2835 and I-1968, or YC-380; test: Fermentation of dairy mix supplemented with Lactium; residual peptides by HPLC-MS/MS; design: species or system lactic bacteria; conditions: 1.5 g/l Lactium added before fermentation; four-strain ferment or YC-380; to pH 4.70
Procedure: The medium was prepared by hydration of powdered skim milk to 120 g/l, supplemented with 1.5 g/l of Lactium® (corresponding to approximately 30 mg/l of the bioactive αS1 [91-100] peptide), then pasteurized at 95° C. for 8 minutes.
The lactic ferment was added in a proportion of 0.02% and fermentation was carried out at the optimal temperature for the selected ferment (37-42° C.) until a pH of 4.70 was reached.
After centrifugation, the supernatant constituted the representative sample of the peptide content of the fermented medium. • Said sample was injected into an Agilent 1100 HPLC system (Agilent Technologies France, 1 rue Galvani, 91745 Massy Cedex, France), equipped with a Waters Symetry® column suitable for peptide analysis (5 μm, 2.1×150 mm, WAT056975, Waters France, 5, rue Jacques Monod, 78280 Guyancourt) at a temperature of 40° C. and a flow rate of 0.25 ml/min. […] For example, the αS1 [91-100] peptide was isolated from its mass (doubly charged ion of mass 634.5 Da) and quantified from the intensity of its characteristic daughter ions after fragmentation (ions for m/z=991.5 Da, 771.5 Da and 658.3 Da). […]

[9] = Fermented product heat treated at 75° C for 1 minute, storage at 10° C (FIG. 5); conditions: 75° C. for approximately 1 min; stored at 10° C. until UBD
Procedure: Since the consumption of the bioactive peptide is caused by the metabolic activity of the ferments, it may be considered useful to reduce this phenomenon by destroying all or part of the microorganisms, for example using a suitable heat treatment (thermization or pasteurization).
FIG. 5: Curves illustrating the evolution of the residual content in bioactive αS1 [91-100] peptide added after fermentation in a fermented product which was then heat treated at 75° C. for 1 minute and then stored at 10° C. until the use-by date (UBD).

[10] = tested on: ferment containing strains I-2783, I-2774, I-2835 and I-1968; test: Peptide added after fermentation, storage at 10° C (FIG. 4); design: species or system lactic bacteria
Procedure: FIG. 4: Curves illustrating the evolution of the residual content in bioactive αS1 [91-100] peptide in a final product comprised of 95% mass fermented by the ferment containing strains I-2783, I-2774, I-2835 and I-1968 and 5% flavored sugar syrup containing the αS1 [91-100] peptide, during storage at 10° C. The experiment was comprised of four independent tests: E1, E2, E3 and E4.
A logical alternative to the procedure studied above is to introduce the functional ingredient after fermentation (“delayed differentiation” procedure), for example with the syrup used to flavor the fermented mass.

S. thermophilus I-1630 = test: Fermentation of Lactium milk by pure strain; conditions: dairy mix containing 1.5 g/l of Lactium; pure strain I-1630; stopped at pH 4.7
Procedure: (§1) After centrifugation, the supernatant constituted the representative sample of the peptide content of the fermented medium. • Said sample was injected into an Agilent 1100 HPLC system (Agilent Technologies France, 1 rue Galvani, 91745 Massy Cedex, France), equipped with a Waters Symetry® column suitable for peptide analysis (5 μm, 2.1×150 mm, WAT056975, Waters France, 5, rue Jacques Monod, 78280 Guyancourt) at a temperature of 40° C. and a flow rate of 0.25 ml/min. The peptides were eluted in a conventional way with an increasing gradient of solvent B (acetonitrile and 0.100% formic acid) in solvent A (water and 0.106% formic acid) for a period of 40 minutes to 2 hours as a function of the resolution desired. • Detection was carried out using a specific MS/MS detector, for example with an ionic trap device such as the Esquire 3000+(Bruker Daltonique, rue de l'Industrie, 67166 Wissembourg Cedex) set either for overall analysis of peptide content (MS-MS mode) or for the precise and specific quantification of a peptide from its characteristic fragments. For example, the αS1 [91-100] peptide was isolated from its mass (doubly charged ion of mass 634.5 Da) and quantified from the intensity of its characteristic daughter ions after fragmentation (ions for m/z=991.5 Da, 771.5 Da and 658.3 Da). In an even more precise manner, an internal standard comprised of the same doubly deuterated synthetic peptide (993.5 Da characteristic fragment) made it possible to take into account and to exclude potential interference related to the matrix.
(§2) In order to verify that this phenomenon was not specific to the two ferments used in paragraph 1.1) above, the principle industrial ferments, as well as various pure strains used in the composition of said ferments, were examined using the same test: milk reconstituted from powdered milk, to which Lactium® was added in an amount of 1.5 g/l, was fermented under standard conditions (optimal temperature for the ferment between 37° C. and 42° C., fermentation stopped at pH 4.7, two repetitions). Analysis of the level of bioactive αS1 [91-100] peptide was then carried out on the sample before and after fermentation.
(§3) In table 3 above, which reflects the consumption of the bioactive αS1 [91-100] peptide by various ferments and industrial strains during the fermentation of a dairy mix containing 1.5 g/l of Lactium®, the pure strains were identified by their CNCM (Pasteur Institute, Paris, France) number and deposit date.

Lactobacillus I-2809 = test: Fermentation of Lactium milk by pure strain; conditions: dairy mix containing 1.5 g/l of Lactium; pure strain I-2809; stopped at pH 4.7
Procedure: as §1, §2, §3

Lactobacillus I-1632 = test: Fermentation of Lactium milk by pure strain; conditions: dairy mix containing 1.5 g/l of Lactium; pure strain I-1632; stopped at pH 4.7
Procedure: as §1, §2, §3

Lactobacillus I-1519 = test: Fermentation of Lactium milk by pure strain; conditions: dairy mix containing 1.5 g/l of Lactium; pure strain I-1519; stopped at pH 4.7
Procedure: as §1, §2, §3

Lactobacillus I-1968 = test: Fermentation of Lactium milk by pure strain; conditions: dairy mix containing 1.5 g/l of Lactium; pure strain I-1968; stopped at pH 4.7
Procedure: as §1, §2, §3

S. thermophilus I-1477 = test: Fermentation of Lactium milk by pure strain; conditions: dairy mix containing 1.5 g/l of Lactium; pure strain I-1477; stopped at pH 4.7
Procedure: as §1, §2, §3

C12 peptide: bioactive C12 peptide (αS1 [23-34] fragment) of DMV C12® hydrolysate (FFVAPFPEVFGK; UniProt P02662 38-49, looked up, fragment)
hydrolysate peptides after fermentation (LC-MS/MS peptide profile) [1]: disappeared

Casein 63-68: Bovine β-casein, Casein 63-68 (PGPIPN; UniProt P02666 78-83, looked up, fragment)
protection in vivo [2]: No protection in vivo

Casein 191-193: Bovine β-casein, Casein 191-193 (LLY; UniProt P02666 206-208, looked up, fragment)
protection in vivo [2]: No protection in vivo

Human lactotransferrin tetrapeptide (39-42): Human lactotransferrin tetrapeptide (39-42) (RDSP; UniProt P02788 58-61, looked up, fragment)
platelet aggregation (platelet aggregation): Inhibition of platelet
antithrombotic activity [3]: after IV injection, antithrombotic

Human β-casein 54-59: Human β-casein 54-59 (VEPIPY; UniProt P05814 69-74, looked up, fragment)
sheep red blood cell phagocytosis by mouse peritoneal macrophages [4]: Stimulation of sheep red blood

II-Pro-Pro
arterial pressure (arterial pressure [5]): Normal rats: no effect
arterial pressure (arterial pressure [6]): ingestion, decrease in arterial
arterial pressure (arterial pressure [7]): decrease in arterial pressure

Peptide 106-116 of bovine κ-casein: Peptide 106-116 of bovine κ-casein (MAIPPKKNQDK; UniProt P02668 127-137, looked up, fragment)
platelet aggregation (platelet aggregation): Inhibition of platelet

RPKHPIKHQGLPQEVLNENLLRF [αS1B-casein fragment (1-23 N terminal)]
efficacy against Staphylococcus aureus (Staphylococcus aureus): Mouse, sheep: effective via IM injection

Val-Pro-Pro
arterial pressure (arterial pressure [5]): Normal rats: no effect
arterial pressure (arterial pressure [6]): ingestion, decrease in arterial
arterial pressure (arterial pressure [7]): decrease in arterial pressure

α-lactalbumin 51-53: α-lactalbumin 51-53 (GLF; UniProt P00711 70-72, looked up, fragment)
sheep red blood cell phagocytosis by mouse peritoneal macrophages [4]: Stimulation of sheep red blood

αS1 [91-100] peptide: peptide with anti-convulsive properties contained in milk protein hydrolysates, marketed by Ingredia under the name Lactium® (YLGYLEQLLR; UniProt P02662 106-115, looked up, fragment)
bioactive αS1 [91-100] peptide consumed after fermentation [8]: more than 95%
stability of αS1 [91-100] peptide in heat-treated fermented product [9]: possible to assure the stability; also recorded: possible to preserve
initial quantity of active peptide left on the use-by date (UBD) ([10]; added cold (4° C.) after fermentation, 1.5 g of Lactium per kg of final product, storage at 10° C.): 30-40%
αS1 [91-100] peptide disappeared during storage of the final product ([10]; after 10 days, fresh products whose UBD is 28 days): 35-50% and 35-55%
% of αS1 [91-100] peptide remaining after fermentation (S. thermophilus I-1630): 0.3%
% of αS1 [91-100] peptide remaining after fermentation (Lactobacillus I-2809): 0.4%
% of αS1 [91-100] peptide remaining after fermentation (Lactobacillus I-1632): 0.2%
% of αS1 [91-100] peptide remaining after fermentation (Lactobacillus I-1519): 0.1%
% of αS1 [91-100] peptide remaining after fermentation (Lactobacillus I-1968): 1.6%
% of αS1 [91-100] peptide remaining after fermentation (S. thermophilus I-1477): 0.3%

From patent publication US20070298144A1, “Method for Protecting Bioactive Food Ingredients Using Decoy Ingredients” (COMPAGNIE GERVAIS DANONE, priority 2004, published 2007)
